Test results from ChEMBL document CHEMBL3885881, “DrugMatrix”.

Organism: Rattus norvegicus
Assay: DrugMatrix - Regimen: Daily Repeat
Assay type: toxicity, organism-based, Sprague-Dawley
Parameters: regimen Daily Repeat, gender Male, age 6-8 weeks
Settings: in vivo, po, route oral GAVAGE, vehicle 100 % SALINE; for ABSOLUTE BASOPHIL / ABSOLUTE EOSINOPHIL / ABSOLUTE LYMPHOCYTE / ABSOLUTE MONOCYTE / ABSOLUTE SEGMENTED NEUTROPHIL / BASOPHIL / EOSINOPHIL / ERYTHROCYTE COUNT / HEMATOCRIT / HEMOGLOBIN / LEUKOCYTE COUNT / LYMPHOCYTE / MEAN CORPUSCULAR HEMOGLOBIN / MEAN CORPUSCULAR HEMOGLOBIN CONCENTRATION / MEAN CORPUSCULAR VOLUME / MONOCYTE / NEUTROPHIL / NUCLEATED RED BLOOD CELLS / PLATELET COUNT: tissue Blood; for ALANINE AMINOTRANSFERASE / ALBUMIN / ALKALINE PHOSPHATASE / ASPARTATE AMINOTRANSFERASE / BLOOD UREA NITROGEN / CARBON DIOXIDE / CHLORIDE / CHOLESTEROL / CREATINE PHOSPHOKINASE / CREATININE / GLUCOSE / LACTATE DEHYDROGENASE / LIPASE / PHOSPHORUS / POTASSIUM / SODIUM / TOTAL BILIRUBIN / TOTAL PROTEIN / URIC ACID: tissue Plasma
[1] = 0 mg/kg, 72 h, dose level Control, time 3 day
[2] = 0 mg/kg, 120 h, dose level Control, time 5 day
[3] = 59 mg/kg, 72 h, dose level Low, time 3 day

NC(=O)NO [HYDROXYUREA]
ABSOLUTE BASOPHIL [1]: 0 CELLS/uL
ABSOLUTE EOSINOPHIL [1]: 16.17 CELLS/uL
ABSOLUTE LYMPHOCYTE [1]: 9117 CELLS/uL
ABSOLUTE MONOCYTE [1]: 16.17 CELLS/uL
ABSOLUTE SEGMENTED NEUTROPHIL [1]: 484 CELLS/uL
BASOPHIL [1]: 0%
EOSINOPHIL [1]: 0.17%
ERYTHROCYTE COUNT [1]: 5.19 x10E6/uL
HEMATOCRIT [1]: 34.9%
HEMOGLOBIN [1]: 13.35 G/DL
LEUKOCYTE COUNT [1]: 9.63 x10E3/uL
LYMPHOCYTE [1]: 94.5%
MEAN CORPUSCULAR HEMOGLOBIN [1]: 25.72 pg
MEAN CORPUSCULAR HEMOGLOBIN CONCENTRATION [1]: 38.25 G/DL
MEAN CORPUSCULAR VOLUME [1]: 67.22 fL
MONOCYTE [1]: 0.17%
NEUTROPHIL [1]: 5.17%
NUCLEATED RED BLOOD CELLS [1]: 0.33 /100WBC
PLATELET COUNT [1]: 1142 x10E3/uL
ALANINE AMINOTRANSFERASE [1]: 47.33 u/L
ALBUMIN [1]: 4.13 G/DL
ALKALINE PHOSPHATASE [1]: 320.33 u/L
ASPARTATE AMINOTRANSFERASE [1]: 76.17 u/L
BLOOD UREA NITROGEN [1]: 12.67 mg/dL
CARBON DIOXIDE [1]: 30.83 mmol/L
CHLORIDE [1]: 99 MEQ/L
CHOLESTEROL [1]: 74.17 mg/dL
CREATINE PHOSPHOKINASE [1]: 271 u/L
CREATININE [1]: 0.15 mg/dL
GLUCOSE [1]: 150.5 mg/dL
LACTATE DEHYDROGENASE [1]: 92.67 u/L
LIPASE [1]: 10 u/L
PHOSPHORUS [1]: 10.67 mg/dL
POTASSIUM [1]: 5.78 MEQ/L
SODIUM [1]: 142.83 MEQ/L
TOTAL BILIRUBIN [1]: 0.1 mg/dL
TOTAL PROTEIN [1]: 6.18 G/DL
URIC ACID [1]: 0.65 mg/dL
ABSOLUTE BASOPHIL [2]: 0 CELLS/uL
ABSOLUTE EOSINOPHIL [2]: 0 CELLS/uL
ABSOLUTE LYMPHOCYTE [2]: 8222.33 CELLS/uL
ABSOLUTE MONOCYTE [2]: 89.67 CELLS/uL
ABSOLUTE SEGMENTED NEUTROPHIL [2]: 471.33 CELLS/uL
BASOPHIL [2]: 0%
EOSINOPHIL [2]: 0%
ERYTHROCYTE COUNT [2]: 5.13 x10E6/uL
HEMATOCRIT [2]: 33.47%
HEMOGLOBIN [2]: 12.97 G/DL
LEUKOCYTE COUNT [2]: 8.78 x10E3/uL
LYMPHOCYTE [2]: 93%
MEAN CORPUSCULAR HEMOGLOBIN [2]: 25.3 pg
MEAN CORPUSCULAR HEMOGLOBIN CONCENTRATION [2]: 38.77 G/DL
MEAN CORPUSCULAR VOLUME [2]: 65.23 fL
MONOCYTE [2]: 1%
NEUTROPHIL [2]: 6%
NUCLEATED RED BLOOD CELLS [2]: 0 /100WBC
PLATELET COUNT [2]: 1298.5 x10E3/uL
ALANINE AMINOTRANSFERASE [2]: 56 u/L
ALBUMIN [2]: 3.98 G/DL
ALKALINE PHOSPHATASE [2]: 321.67 u/L
ASPARTATE AMINOTRANSFERASE [2]: 99.17 u/L
BLOOD UREA NITROGEN [2]: 13.8 mg/dL
CARBON DIOXIDE [2]: 29 mmol/L
CHLORIDE [2]: 98.67 MEQ/L
CHOLESTEROL [2]: 59.67 mg/dL
CREATINE PHOSPHOKINASE [2]: 363 u/L
CREATININE [2]: 0.24 mg/dL
GLUCOSE [2]: 167.83 mg/dL
LACTATE DEHYDROGENASE [2]: 120.83 u/L
LIPASE [2]: 22.5 u/L
PHOSPHORUS [2]: 11.6 mg/dL
POTASSIUM [2]: 5.62 MEQ/L
SODIUM [2]: 143 MEQ/L
TOTAL BILIRUBIN [2]: 0.17 mg/dL
TOTAL PROTEIN [2]: 5.95 G/DL
URIC ACID [2]: 0.87 mg/dL
ABSOLUTE BASOPHIL [3]: 0 CELLS/uL
ABSOLUTE EOSINOPHIL [3]: 15 CELLS/uL
ABSOLUTE LYMPHOCYTE [3]: 4978 CELLS/uL
ABSOLUTE MONOCYTE [3]: 44 CELLS/uL
ABSOLUTE SEGMENTED NEUTROPHIL [3]: 663 CELLS/uL
BASOPHIL [3]: 0%
EOSINOPHIL [3]: 0.33%
ERYTHROCYTE COUNT [3]: 5.08 x10E6/uL
HEMATOCRIT [3]: 33.63%
HEMOGLOBIN [3]: 12.83 G/DL
LEUKOCYTE COUNT [3]: 5.7 x10E3/uL
LYMPHOCYTE [3]: 87.67%
MEAN CORPUSCULAR HEMOGLOBIN [3]: 25.3 pg
MEAN CORPUSCULAR HEMOGLOBIN CONCENTRATION [3]: 38.17 G/DL
MEAN CORPUSCULAR VOLUME [3]: 66.27 fL
MONOCYTE [3]: 0.67%
NEUTROPHIL [3]: 11.33%
NUCLEATED RED BLOOD CELLS [3]: 0 /100WBC
PLATELET COUNT [3]: 1118 x10E3/uL
ALANINE AMINOTRANSFERASE [3]: 47.33 u/L
ALBUMIN [3]: 4.17 G/DL
ALKALINE PHOSPHATASE [3]: 328 u/L
ASPARTATE AMINOTRANSFERASE [3]: 73.67 u/L
BLOOD UREA NITROGEN [3]: 11.33 mg/dL
CARBON DIOXIDE [3]: 30 mmol/L
CHLORIDE [3]: 99 MEQ/L
CHOLESTEROL [3]: 75.33 mg/dL
CREATINE PHOSPHOKINASE [3]: 258 u/L
CREATININE [3]: 0.2 mg/dL
GLUCOSE [3]: 152 mg/dL
LACTATE DEHYDROGENASE [3]: 90 u/L
LIPASE [3]: 10 u/L
PHOSPHORUS [3]: 10.83 mg/dL
POTASSIUM [3]: 5.95 MEQ/L
SODIUM [3]: 142.63 MEQ/L
TOTAL BILIRUBIN [3]: 0.1 mg/dL
TOTAL PROTEIN [3]: 6.07 G/DL
URIC ACID [3]: 0.9 mg/dL
